Key:
hCA I = hCA I (Homo sapiens, UniProt P00915); test: stopped flow carbon dioxide hydrase assay, hCA I
Bax [1] = test: Bax expression level (ELISA) in MDA-MB-231 cells; assay type: cell-based, human; details: 24 h incubation
Protocol: (§1) The levels of two members of Bcl-2 family proteins, the anti-apoptotic Bcl-2 protein, and the counteracting pro-apoptotic Bax protein, as well as the level of active caspase-3 (a key executioner protease) in MDA-MB-231 and MCF-7 cells have been assessed after incubation with QBS 11c and 13b for 24 h.
(§2) All adopted procedures for the conducted in vitro biological assays were performed as described earlier; CA (stopped-flow), cytotoxicity (MTT [37, 38]), and assessment of apoptotic markers assays, as well as induction of hypoxia with cobalt chloride, and were mentioned in the Supporting Materials. […]
(§3) 3. Assessment of Apo ptotic Markers Levels
The levels of the pro-apoptotic markers (Bax and active caspase-3) as well as the anti-apoptotic marker Bcl-2 were determined using ELISA kits; Human Bax ELISA Kit (EIA-4487) DRG® Instruments, Bcl-2 ELISA Kit (99–0042), Zymed® Laboratories, Invitrogen Immunodetection, and Human Caspase-3 (active) ELISA Kit (KHO1091) Invitrogen®, per the manufacturer’s instructions. Breast cancer MDA-MB-231 and MCF-7 cells were cultured as a monolayer in T-25 flasks and were seeded to attain 30% confluency prior to treatment. Cells were then treated separately with MBFS 11b at its IC50 concentration for 24 h. At the end of treatment, cells were collected via trypsinization and centrifuged at 10,000 rpm. The pellet was then rinsed with PBS and lysed in RIPA lysis buffer at 4 °C for 45 min, then centrifuged at 14,000 rpm for 20 min to remove the cellular debris. Lysates were then collected and stored at −80 °C for later protein determination using Pierce BCA Protein Assay Kit according to manufacturer’s recommendations.
The cell lysate was diluted 10 times, and 100 μL ([…]) was added to the wells of […] separate microtiter plates for the three ELISA kits th at were pre-coated with primary antibodies specific to Bax, Bcl-2, and caspase-3 proteins, respectively. A secondary biotin-linked antibody specific to the protein captured by the primary antibody was further added to bind the […]
captured protein, forming a “sandwich” of specific antibodies around the desired protein in the cell lysate. The streptavidin-HRP complex was then used to bind the biotin-linked secondary antibody through its streptavidin portion. The HRP domain reacted with the added TMB substrate to form a colored product that measured at 450 nm by a plate reader ChroMate-4300 after the reaction was terminated via the addition of stop solution. […]
The ligand 3D structures were prepared by Maestro and their ionization states was checked with Epik at pH 7.4±0.5 then they were subjected to energy minimization using OPLS3 force field in Macromodel with a maximum number of 2500 conjugate gradient iteration and a convergence of 0.05 kcal mol−1 A−1. […]

Bax [2] = test: Bax expression level (ELISA) in MCF-7 cells; assay type: cell-based, human; details: 24 h incubation
Protocol: as §1, §2
monolay er. Cell monolay ers were treated in quadrates with vehicle (DMSO, 0.1% v/v), test samples or Adriamycin as positive control for an exposure time of 72 h. At the end of exposure, MTT solution in PBS (5 mg/ml) was then added to all well including no cell blank and left to incubate for 90 min. The formation of formazan crystals were visually confirmed using phase contract microscopy. DMSO (100 µl/well) was added to dissolve the formazan crystals with shaking for 10 min after which the absorbance was read at 590 nm against no cell blanks on a FLuo Star Optima microplate reader (BMG technologies, Germany). Cell proliferation was calculated comparing the OD values of the DMSO control wells and those of the samples represented as % proliferation to the control. Dose-response experiment was performed on samples producing > or =50% loss of cell proliferation using five serial 2-fold dilutions (50, 25, 12.5, 6.25 and 3.125 µM) of the sample. IC50 values (concentration of sample causing 50% loss of cell proliferation of the vehicle control) were calculated using non-linear regression curve fitting of the dose response plots on GraphPad Prism V.6.0 software.
as §3
The levels of the pro-apoptotic markers (Bax and active caspase-3) as well as the anti-apoptotic marker Bcl-2 were determined using ELISA kits; Human Bax ELISA Kit (EIA-4487) DRG® Instruments, Bcl-2 ELISA Kit (99–0042), Zymed® Laboratories, Invitrogen Immunodetection, and Human Caspase-3 (active) ELISA Kit (KHO1091) Invitrogen®, per the manufacturer’s instructions. Breast cancer MDA-MB-231 and MCF-7 cells were cultured as a monolayer in T-25 flasks and were seeded to attain 30% confluency prior to treatment. Cells were then treated separately with MBFS 11b at its IC50 concentration for 24 h. […]
captured protein, forming a “sandwich” of specific antibodies around the desired protein in the cell lysate. […] The HRP domain reacted with the added TMB substrate to form a colored product that measured at 450 nm by a plate reader ChroMate-4300 after the reaction was terminated via the addition of stop solution. […]

Sequence of hCA I (P00915 whole entry): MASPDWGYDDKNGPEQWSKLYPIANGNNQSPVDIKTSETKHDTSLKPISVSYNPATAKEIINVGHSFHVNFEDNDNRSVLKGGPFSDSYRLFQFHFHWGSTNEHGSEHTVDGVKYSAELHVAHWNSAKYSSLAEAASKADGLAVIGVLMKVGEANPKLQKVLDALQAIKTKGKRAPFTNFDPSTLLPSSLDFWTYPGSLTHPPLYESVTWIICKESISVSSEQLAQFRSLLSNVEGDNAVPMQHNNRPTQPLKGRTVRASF

Ki (hCA I) | SMILES | BAX (Bax [1]) | BAX, folds of control (Bax [1]) | BAX (Bax [2]) | BAX, folds of control (Bax [2])
0.442 µM | NS(=O)(=O)c1cccc(Nc2ccnc3ccc(Cl)cc23)c1 [11c, 3-((6-chloroquinolin-4-yl)amino)benzenesulfonamide] | 420.9 ± 8.24 Pg/mg of Total Protein | 7.1 folds of control | 512.9 ± 11.7 Pg/mg of Total Protein | 5.36 folds of control
0.0921 µM | COc1ccc2nccc(Nc3ccc(S(N)(=O)=O)cc3)c2c1 [13b, 4-((6-methoxyquinolin-4-yl)amino)benzenesulfonamide] | 373.5 ± 10.4 Pg/mg of Total Protein | 6.3 folds of control | 443.9 ± 10.2 Pg/mg of Total Protein | 4.64 folds of control

Source: paper PMC8541628, “Development of Novel Quinoline-Based Sulfonamides as Selective Cancer-Associated Carbonic Anhydrase Isoform IX Inhibitors” (International Journal of Molecular Sciences, 2021)
